Assay results reported in patent US20220389061A1, “IMMUNOMODULATORS” (priority 2019, published 2022).
Starred links: 1 amine or outer side, 2 acyl side, 3 side chain; linkers in the order of their positions; H or OH if unused. Positions of bridges follow the written chain, without caps; N, C: chain ends. Non-standard residues stand in square brackets, D forms with d. Residues, ends and D or L forms follow the SMILES beside them. Groups on a side chain read outwards from the residue. *: point of attachment. Trp(1-CH2COOH) = N[C@@H](Cc1cn(CC(=O)O)c2ccccc12)C(=O)O; X24 = COc1cc(NC(=S)*)ccc1-n1cnc(C)n1; X38 = N#Cc1c[nH]c2c(NC(=S)*)cccc12; X31 = S=C(Nc1cccc2c(Cl)c[nH]c12)*; Hyp = O=C(O)[C@@H]1C[C@@H](O)CN1; X35 = Cc1n[nH]c2c(NC(=S)*)cccc12; X27 = Cc1cc([N+](=O)[O-])ccc1N*; X78 = S=C(Nc1c(Cl)cc(Cl)cc1Cl)*; X11 = S=C(Nc1ccccc1-c1ccccc1)*; NMeNle = CCCC[C@H](NC)C(=O)O; X9 = Fc1ccc(NC(=S)*)c(Cl)c1; X5 = S=C(Nc1cccc2ccccc12)*; X64 = COc1cc(OC)c(N*)cc1Cl; 3Abz = Nc1cccc(C(=O)O)c1; NMeA = CN[C@@H](C)C(=O)O; X71 = c1cc2c(cc1N*)OCCO2; Dab = NCC[C@H](N)C(=O)O; Dap = NC[C@H](N)C(=O)O; CO = O=C([*:1])[*:2]

biological target: T1, PD-1/PD-L1 (Homo sapiens, UniProt Q9NZQ7); test: PD-1/PD-L1 Homogenous Time-Resolved Fluorescence (HTRF) binding assay; conditions: not given
T1 construct: TVMV protease site linker (C); made in house; host or cells: HEK293T cells
Description: The ability of the compounds of formula (I) to bind to PD-L1 was investigated using a PD-1/PD-L1 Homogenous Time-Resolved Fluorescence (HTRF) binding assay.
The interaction of PD-1 and PD-L1 can be assessed using soluble, purified preparations of the extracellular domains of the two proteins. The PD-1 and PD-L1 protein extracellular domains were expressed as fusion proteins with detection tags, for PD-1, the tag was the Fc portion of Immunoglobulin (PD-1-Ig) and for PD-L1 it was the 6 histidine motif (PD-L1-His). All binding studies were performed in an HTRF assay buffer consisting of dPBS supplemented with 0.1% […] bovine serum albumin and 0.05% (v/v) Tween-20. For the h/PD-L1-His binding assay, inhibitors were pre-incubated with PD-L1-His (10 nM final) for 15 m in 4 μl of assay buffer, followed by addition of PD-1-Ig (20 nM final) in 1 μl of assay buffer and further incubation for 15 m. HTRF detection was achieved using europium crypate-labeled anti-Ig (1 nM final) and allophycocyanin (APC) labeled anti-His (20 nM final). Antibodies were diluted in HTRF detection buffer and 5 μl was dispensed on top of the binding reaction. […] Additional binding assays were established between the human proteins PD-1-Ig/PD-L2-His (20 & 5 nM, respectively) and CD80-His/PD-L1-Ig (100 & 10 nM, respectively). […]

T1 sequence (Q9NZQ7 18-239): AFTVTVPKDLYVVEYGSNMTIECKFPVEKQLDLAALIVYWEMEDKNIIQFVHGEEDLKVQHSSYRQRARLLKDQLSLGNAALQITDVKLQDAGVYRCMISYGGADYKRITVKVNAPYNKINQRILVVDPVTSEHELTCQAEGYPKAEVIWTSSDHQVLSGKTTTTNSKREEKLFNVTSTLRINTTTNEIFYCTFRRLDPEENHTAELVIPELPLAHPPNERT

Row | SMILES | IC50 [nM]
1 | CCCC[C@H]1C(=O)N(C)[C@@H](CCCC)C(=O)N[C@@H](CC(C)C)C(=O)N[C@H](C(=O)NCC(N)=O)CSCC(=O)N[C@@H](Cc2ccc(O)cc2)C(=O)N(C)[C@@H](C)C(=O)N[C@@H](CC(N)=O)C(=O)N2CCC[C@H]2C(=O)N[C@@H](CNC(=O)Nc2ccc([N+](=O)[O-])cc2C)C(=O)N[C@@H](CC(C)C)C(=O)N2C[C@H](O)C[C@H]2C(=O)N[C@@H](Cc2c[nH]c3ccccc23)C(=O)N[C@@H](CCNC(=O)Nc2ccc([N+](=O)[O-])cc2C)C(=O)N[C@@H](Cc2cn(CC(=O)O)c3ccccc23)C(=O)N1C [Example 1122] ({CH2CO}-Y[NMeA]NP[Dap]([CO-X27])L[Hyp]W[Dab]([CO-X27])[Trp(1-CH2COOH)][NMeNle][NMeNle]LCG-NH2; thioether N-14) | 14

same assay, conditions: PD-L1-His 10 nM pre-incubated with inhibitor, PD-1-Ig 20 nM; read-out: HTRF IC50

Row | IC50 [nM] | SMILES
2 | 1.5 | CCCC[C@H]1C(=O)N(C)[C@@H](CCCC)C(=O)N[C@@H](CC(C)C)C(=O)N[C@H](C(=O)NCC(N)=O)CSCC(=O)N[C@@H](Cc2ccc(O)cc2)C(=O)N(C)[C@@H](C)C(=O)N[C@@H](CC(N)=O)C(=O)N2CCC[C@H]2C(=O)N[C@@H](CNC(=S)Nc2c(Cl)cc(Cl)cc2Cl)C(=O)N[C@@H](CC(C)C)C(=O)N2C[C@H](O)C[C@H]2C(=O)N[C@@H](Cc2c[nH]c3ccccc23)C(=O)N[C@@H](CCN)C(=O)N[C@@H](Cc2cn(CC(=O)O)c3ccccc23)C(=O)N1C [Example 1109] ({CH2CO}-Y[NMeA]NP[Dap](X78)L[Hyp]W[Dab][Trp(1-CH2COOH)][NMeNle][NMeNle]LCG-NH2; thioether N-14)
3 | 1.5 | CCCC[C@H]1C(=O)N(C)[C@@H](CCCC)C(=O)N[C@@H](CC(C)C)C(=O)N[C@H](C(=O)NCC(N)=O)CSCC(=O)N[C@@H](Cc2ccc(O)cc2)C(=O)N(C)[C@@H](C)C(=O)N[C@@H](CC(N)=O)C(=O)N2CCC[C@H]2C(=O)N[C@@H](CNC(=O)Nc2cc(Cl)c(OC)cc2OC)C(=O)N[C@@H](CC(C)C)C(=O)N2C[C@H](O)C[C@H]2C(=O)N[C@@H](Cc2c[nH]c3ccccc23)C(=O)N[C@@H](CCNC(=O)Nc2cc(Cl)c(OC)cc2OC)C(=O)N[C@@H](Cc2cn(CC(=O)O)c3ccccc23)C(=O)N1C [Example 1082] ({CH2CO}-Y[NMeA]NP[Dap]([CO-X64])L[Hyp]W[Dab]([CO-X64])[Trp(1-CH2COOH)][NMeNle][NMeNle]LCG-NH2; thioether N-14)
4 | 2.8 | CCCC[C@H]1C(=O)N(C)[C@@H](CCCC)C(=O)N[C@@H](CC(C)C)C(=O)N[C@H](C(=O)NCC(N)=O)CSCC(=O)N[C@@H](Cc2ccc(O)cc2)C(=O)N(C)[C@@H](C)C(=O)N[C@@H](CC(N)=O)C(=O)N2CCC[C@H]2C(=O)N[C@@H](CNC(=S)Nc2ccc(F)cc2Cl)C(=O)N[C@@H](CC(C)C)C(=O)N2C[C@H](O)C[C@H]2C(=O)N[C@@H](Cc2c[nH]c3ccccc23)C(=O)N[C@@H](CCNC(=S)Nc2ccc(F)cc2Cl)C(=O)N[C@@H](Cc2cn(CC(=O)O)c3ccccc23)C(=O)N1C [Example 1031] ({CH2CO}-Y[NMeA]NP[Dap](X9)L[Hyp]W[Dab](X9)[Trp(1-CH2COOH)][NMeNle][NMeNle]LCG-NH2; thioether N-14)
5 | 4.5 | CCCC[C@H]1C(=O)N(C)[C@@H](CCCC)C(=O)N[C@@H](CC(C)C)C(=O)N[C@H](C(=O)NCC(N)=O)CSCC(=O)N[C@@H](Cc2ccc(O)cc2)C(=O)N(C)[C@@H](C)C(=O)N[C@@H](CC(N)=O)C(=O)N2CCC[C@H]2C(=O)N[C@@H](CNC(=S)Nc2cccc3c(C#N)c[nH]c23)C(=O)N[C@@H](CC(C)C)C(=O)N2C[C@H](O)C[C@H]2C(=O)N[C@@H](Cc2c[nH]c3ccccc23)C(=O)N[C@@H](CCNC(=S)Nc2cccc3c(C#N)c[nH]c23)C(=O)N[C@@H](Cc2cn(CC(=O)O)c3ccccc23)C(=O)N1C [Example 3051] ({CH2CO}-Y[NMeA]NP[Dap](X38)L[Hyp]W[Dab](X38)[Trp(1-CH2COOH)][NMeNle][NMeNle]LCG-NH2; thioether N-14)
6 | 3.5 | CCCC[C@H]1C(=O)N(C)[C@@H](CCCC)C(=O)N[C@@H](CC(C)C)C(=O)N[C@H](C(=O)NCC(N)=O)CSCC(=O)N[C@@H](Cc2ccc(O)cc2)C(=O)N(C)[C@@H](C)C(=O)N[C@@H](CC(N)=O)C(=O)N2CCC[C@H]2C(=O)N[C@@H](CNC(=S)Nc2ccc(-n3cnc(C)n3)c(OC)c2)C(=O)N[C@@H](CC(C)C)C(=O)N2C[C@H](O)C[C@H]2C(=O)N[C@@H](Cc2c[nH]c3ccccc23)C(=O)N[C@@H](CCN)C(=O)N[C@@H](Cc2cn(CC(=O)O)c3ccccc23)C(=O)N1C [Example 1054] ({CH2CO}-Y[NMeA]NP[Dap](X24)L[Hyp]W[Dab][Trp(1-CH2COOH)][NMeNle][NMeNle]LCG-NH2; thioether N-14)
7 | 2.8 | CCCC[C@H]1C(=O)N(C)[C@@H](CCCC)C(=O)N[C@@H](CC(C)C)C(=O)N[C@H](C(=O)NCC(N)=O)CSCC(=O)N[C@@H](Cc2ccc(O)cc2)C(=O)N(C)[C@@H](C)C(=O)N[C@@H](CC(N)=O)C(=O)N2CCC[C@H]2C(=O)N[C@@H](CNC(=S)Nc2cccc3ccccc23)C(=O)N[C@@H](CC(C)C)C(=O)N2C[C@H](O)C[C@H]2C(=O)N[C@@H](Cc2c[nH]c3ccccc23)C(=O)N[C@@H](CCNC(=S)Nc2cccc3ccccc23)C(=O)N[C@@H](Cc2cn(CC(=O)O)c3ccccc23)C(=O)N1C [Example 3006] ({CH2CO}-Y[NMeA]NP[Dap](X5)L[Hyp]W[Dab](X5)[Trp(1-CH2COOH)][NMeNle][NMeNle]LCG-NH2; thioether N-14)
8 | 4.1 | CCCC[C@H]1C(=O)N(C)[C@@H](CCCC)C(=O)N[C@@H](CC(C)C)C(=O)N[C@H](C(=O)NCC(N)=O)CSCC(=O)N[C@@H](Cc2ccc(O)cc2)C(=O)N(C)[C@@H](C)C(=O)N[C@@H](CC(N)=O)C(=O)N2CCC[C@H]2C(=O)N[C@@H](CNC(=O)Nc2cccc(C(=O)OCC)c2)C(=O)N[C@@H](CC(C)C)C(=O)N2C[C@H](O)C[C@H]2C(=O)N[C@@H](Cc2c[nH]c3ccccc23)C(=O)N[C@@H](CCN)C(=O)N[C@@H](Cc2cn(CC(=O)O)c3ccccc23)C(=O)N1C [Example 1078] ({CH2CO}-Y[NMeA]NP[Dap]([CO-3Abz-OEt])L[Hyp]W[Dab][Trp(1-CH2COOH)][NMeNle][NMeNle]LCG-NH2; thioether N-14)
9 | 2.5 | CCCC[C@H]1C(=O)N(C)[C@@H](CCCC)C(=O)N[C@@H](CC(C)C)C(=O)N[C@H](C(=O)NCC(N)=O)CSCC(=O)N[C@@H](Cc2ccc(O)cc2)C(=O)N(C)[C@@H](C)C(=O)N[C@@H](CC(N)=O)C(=O)N2CCC[C@H]2C(=O)N[C@@H](CNC(=O)Nc2ccc3c(c2)OCCO3)C(=O)N[C@@H](CC(C)C)C(=O)N2C[C@H](O)C[C@H]2C(=O)N[C@@H](Cc2c[nH]c3ccccc23)C(=O)N[C@@H](CCN)C(=O)N[C@@H](Cc2cn(CC(=O)O)c3ccccc23)C(=O)N1C [Example 3042] ({CH2CO}-Y[NMeA]NP[Dap]([CO-X71])L[Hyp]W[Dab][Trp(1-CH2COOH)][NMeNle][NMeNle]LCG-NH2; thioether N-14)
10 | 4.6 | CCCC[C@H]1C(=O)N(C)[C@@H](CCCC)C(=O)N[C@@H](CC(C)C)C(=O)N[C@H](C(=O)NCC(N)=O)CSCC(=O)N[C@@H](Cc2ccc(O)cc2)C(=O)N(C)[C@@H](C)C(=O)N[C@@H](CC(N)=O)C(=O)N2CCC[C@H]2C(=O)N[C@@H](CNC(=S)Nc2cccc3c(C)n[nH]c23)C(=O)N[C@@H](CC(C)C)C(=O)N2C[C@H](O)C[C@H]2C(=O)N[C@@H](Cc2c[nH]c3ccccc23)C(=O)N[C@@H](CCN)C(=O)N[C@@H](Cc2cn(CC(=O)O)c3ccccc23)C(=O)N1C [Example 3066] ({CH2CO}-Y[NMeA]NP[Dap](X35)L[Hyp]W[Dab][Trp(1-CH2COOH)][NMeNle][NMeNle]LCG-NH2; thioether N-14)
11 | 3.8 | CCCC[C@H]1C(=O)N(C)[C@@H](CCCC)C(=O)N[C@@H](CC(C)C)C(=O)N[C@H](C(=O)NCC(N)=O)CSCC(=O)N[C@@H](Cc2ccc(O)cc2)C(=O)N(C)[C@@H](C)C(=O)N[C@@H](CC(N)=O)C(=O)N2CCC[C@H]2C(=O)N[C@@H](CNC(=S)Nc2ccccc2-c2ccccc2)C(=O)N[C@@H](CC(C)C)C(=O)N2C[C@H](O)C[C@H]2C(=O)N[C@@H](Cc2c[nH]c3ccccc23)C(=O)N[C@@H](CCN)C(=O)N[C@@H](Cc2cn(CC(=O)O)c3ccccc23)C(=O)N1C [Example 1085] ({CH2CO}-Y[NMeA]NP[Dap](X11)L[Hyp]W[Dab][Trp(1-CH2COOH)][NMeNle][NMeNle]LCG-NH2; thioether N-14)
12 | 3.1 | CCCC[C@H]1C(=O)N(C)[C@@H](CCCC)C(=O)N[C@@H](CC(C)C)C(=O)N[C@H](C(=O)NCC(N)=O)CSCC(=O)N[C@@H](Cc2ccc(O)cc2)C(=O)N(C)[C@@H](C)C(=O)N[C@@H](CC(N)=O)C(=O)N2CCC[C@H]2C(=O)N[C@@H](CN)C(=O)N[C@@H](CC(C)C)C(=O)N2C[C@H](O)C[C@H]2C(=O)N[C@@H](Cc2c[nH]c3ccccc23)C(=O)N[C@@H](CCNC(=S)Nc2cccc3c(Cl)c[nH]c23)C(=O)N[C@@H](Cc2cn(CC(=O)O)c3ccccc23)C(=O)N1C [Example 3031] ({CH2CO}-Y[NMeA]NP[Dap]L[Hyp]W[Dab](X31)[Trp(1-CH2COOH)][NMeNle][NMeNle]LCG-NH2; thioether N-14)
